From patent US20260070945A1, “MACROCYCLIC IMMUNOMODULATORS” (Bristol-Myers Squibb Company, priority 2022, published 2026)
*1 amine or outer side, *2 acyl side, *3 side chain or, on linkers, in order; H or OH if unused. Where a SMILES comes first, the peptide text is derived from it. Bridges are numbered along the chain shown (N, C = ends). [ ]: non-standard residue; d: D form. The star is where a group is joined. Phe(4-COOH) = N[C@@H](Cc1ccc(C(=O)O)cc1)C(=O)O; Bip = N[C@@H](Cc1ccc(-c2ccccc2)cc1)C(=O)O; Phe(3-Me) = Cc1cccc(C[C@H](N)C(=O)O)c1; γGlu = O=C(O)[C@H](CCC(=O)[*:2])N[*:1]; βAsp = O=C(O)[C@H](CC(=O)[*:2])N[*:1]; Cha = N[C@@H](CC1CCCCC1)C(=O)O; Carboxymethyl = O=C(O)C*; NMeA = CN[C@@H](C)C(=O)O; Orn = NCCC[C@H](N)C(=O)O; Aun = NCCCCCCCCCCC(=O)O; Dab = NCC[C@H](N)C(=O)O; Dap = NC[C@H](N)C(=O)O; AEEA = NCCOCCOCC(=O)O

target: T1, PD-1/PD-L1 interaction (PE-labeled human PD-L1-Ig binding to Jurkat cell line over-expressing human PD-1) (Homo sapiens, UniProt Q15116); assay: Jurkat-PD-1 Cell Binding High-Content Screening Assay (CBA); conditions: Jurkat-hPD-1 cells, PE-labeled PD-L1-Ig 20 nM final; read-out: Jurkat HPD1 PDL1 IC50
T1 construct: expressed in transfected cells; host or cells: Jurkat
T1 sequence (Q15116 25-288): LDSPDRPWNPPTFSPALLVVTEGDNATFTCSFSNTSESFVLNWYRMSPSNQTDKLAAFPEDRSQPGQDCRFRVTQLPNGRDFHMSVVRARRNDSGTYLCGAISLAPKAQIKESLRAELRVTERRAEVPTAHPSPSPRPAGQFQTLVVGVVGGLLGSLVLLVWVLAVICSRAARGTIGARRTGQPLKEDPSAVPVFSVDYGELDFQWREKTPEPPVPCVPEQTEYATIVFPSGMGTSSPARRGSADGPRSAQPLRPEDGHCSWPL
Experimental: Example 2: Jurkat-PD-1 Cell Binding High-Content Screening Assay (CBA)
Phycoerythrin (PE) was covalently linked to the Ig epitope tag of human PD-L1-Ig and fluorescently-labeled PD-L1-Ig was used for binding studies with a Jurkat cell line over-expressing human PD-1 (Jurkat-PD-1). Briefly, 8×10^3 Jurkat-hPD-1 cells were seeded into 384 well plates in 20 μl of DMEM supplemented with 10% fetal calf serum. 100 nl of compound was added to cells followed by incubation at 37° C. for 2 hours. Then, 5 μl of PE-labeled PD-L1-Ig (20 nM final), diluted in DMEM supplemented with 10% fetal calf serum. After 1 hour incubation, cells were fixed with […] in dPBS containing 10 μg/ml Hoechst 33342 and then washed 3× in 100 μl dPBS. Data was collected and processed using a Cell Insight NXT High Content Imager and associated software.

IC50 [nM] | SMILES
67.7 | Cc1cccc(C[C@@H]2NC(=O)[C@H](CC(=O)O)NC(=O)[C@H](Cc3ccc(C(=O)O)cc3)NC(=O)[C@H](Cc3ccc(OCC(=O)O)cc3)NC(=O)CSC[C@@H](C(=O)NCC(=O)N[C@@H](CCC(=O)O)C(=O)NCCOCCOCC(=O)N[C@@H](CCC(=O)NCCOCCOCC(=O)NCCCCCCCCCCC(=O)O)C(=O)O)NC(=O)[C@H](CO)NC(=O)[C@H](C(C)C)NC(=O)[C@H](CC(C)C)NC(=O)[C@H](CC(N)=O)NC(=O)[C@@H](CC(C)C)NC(=O)[C@H](C)N(C)C(=O)[C@H](C(C)C)NC(=O)[C@H](Cc3ccc(-c4ccccc4)cc3)NC(=O)[C@H](CC(C)C)NC2=O)c1 [Example 1018] ({CH2CO}-Y(Carboxymethyl)[Phe(4-COOH)]D[Phe(3-Me)]L[Bip]V[NMeA][dL]NLVSCGE[AEEA][γGlu][AEEA][Aun]-OH; thioether N-14)
58.5 | Cc1cccc(C[C@@H]2NC(=O)[C@H](CC(=O)O)NC(=O)[C@H](Cc3ccc(C(=O)O)cc3)NC(=O)[C@H](Cc3ccc(OCC(=O)O)cc3)NC(=O)CSC[C@@H](C(=O)NCC(=O)N[C@@H](CC(=O)O)C(=O)NCCOCCOCC(=O)N[C@@H](CCC(=O)NCCOCCOCC(=O)NCCCCCCCCCCC(=O)O)C(=O)O)NC(=O)[C@H](CO)NC(=O)[C@H](C(C)C)NC(=O)[C@H](CC(C)C)NC(=O)[C@H](CC(N)=O)NC(=O)[C@@H](CC(C)C)NC(=O)[C@H](C)N(C)C(=O)[C@H](C(C)C)NC(=O)[C@H](Cc3ccc(-c4ccccc4)cc3)NC(=O)[C@H](CC(C)C)NC2=O)c1 [Example 1019] ({CH2CO}-Y(Carboxymethyl)[Phe(4-COOH)]D[Phe(3-Me)]L[Bip]V[NMeA][dL]NLVSCGD[AEEA][γGlu][AEEA][Aun]-OH; thioether N-14)
76.2 | Cc1cccc(C[C@@H]2NC(=O)[C@H](CC(=O)O)NC(=O)[C@H](Cc3ccc(C(=O)O)cc3)NC(=O)[C@H](Cc3ccc(OCC(=O)O)cc3)NC(=O)CSC[C@@H](C(=O)NCC(=O)N[C@@H](CCC(=O)O)C(=O)NCCOCCOCC(=O)N[C@@H](CC(=O)NCCOCCOCC(=O)NCCCCCCCCCCC(=O)O)C(=O)O)NC(=O)[C@H](CO)NC(=O)[C@H](C(C)C)NC(=O)[C@H](CC(C)C)NC(=O)[C@H](CC(N)=O)NC(=O)[C@@H](CC(C)C)NC(=O)[C@H](C)N(C)C(=O)[C@H](C(C)C)NC(=O)[C@H](Cc3ccc(-c4ccccc4)cc3)NC(=O)[C@H](CC(C)C)NC2=O)c1 [Example 1021] ({CH2CO}-Y(Carboxymethyl)[Phe(4-COOH)]D[Phe(3-Me)]L[Bip]V[NMeA][dL]NLVSCGE[AEEA][βAsp][AEEA][Aun]-OH; thioether N-14)
76.6 | Cc1cccc(C[C@@H]2NC(=O)[C@H](CC(=O)O)NC(=O)[C@H](Cc3ccc(C(=O)O)cc3)NC(=O)[C@H](Cc3ccc(OCC(=O)O)cc3)NC(=O)CSC[C@@H](C(=O)NCC(=O)N[C@@H](CC(=O)O)C(=O)NCCOCCOCC(=O)N[C@@H](CC(=O)NCCOCCOCC(=O)NCCCCCCCCCCC(=O)O)C(=O)O)NC(=O)[C@H](CO)NC(=O)[C@H](C(C)C)NC(=O)[C@H](CC(C)C)NC(=O)[C@H](CC(N)=O)NC(=O)[C@@H](CC(C)C)NC(=O)[C@H](C)N(C)C(=O)[C@H](C(C)C)NC(=O)[C@H](Cc3ccc(-c4ccccc4)cc3)NC(=O)[C@H](CC(C)C)NC2=O)c1 [Example 1022] ({CH2CO}-Y(Carboxymethyl)[Phe(4-COOH)]D[Phe(3-Me)]L[Bip]V[NMeA][dL]NLVSCGD[AEEA][βAsp][AEEA][Aun]-OH; thioether N-14)
119 | Cc1cccc(C[C@@H]2NC(=O)[C@H](CC(=O)O)NC(=O)[C@H](Cc3ccc(C(=O)O)cc3)NC(=O)[C@H](Cc3ccc(OCC(=O)O)cc3)NC(=O)CSC[C@@H](C(=O)NCC(=O)N[C@@H](CC(=O)NCCOCCOCC(=O)N[C@@H](CCC(=O)O)C(=O)NCCOCCOCC(=O)NCCCCCCCCCCC(=O)O)C(=O)O)NC(=O)[C@H](CO)NC(=O)[C@H](C(C)C)NC(=O)[C@H](CC(C)C)NC(=O)[C@H](CC(N)=O)NC(=O)[C@@H](CC(C)C)NC(=O)[C@H](C)N(C)C(=O)[C@H](C(C)C)NC(=O)[C@H](Cc3ccc(-c4ccccc4)cc3)NC(=O)[C@H](CC(C)C)NC2=O)c1 [Example 1023] ({CH2CO}-Y(Carboxymethyl)[Phe(4-COOH)]D[Phe(3-Me)]L[Bip]V[NMeA][dL]NLVSCG[βAsp][AEEA]E[AEEA][Aun]-OH; thioether N-14)
87.5 | Cc1cccc(C[C@@H]2NC(=O)[C@H](CC(=O)O)NC(=O)[C@H](Cc3ccc(C(=O)O)cc3)NC(=O)[C@H](Cc3ccc(OCC(=O)O)cc3)NC(=O)CSC[C@@H](C(=O)NCC(=O)N[C@@H](CC(=O)NCCOCCOCC(=O)N[C@@H](CC(=O)O)C(=O)NCCOCCOCC(=O)NCCCCCCCCCCC(=O)O)C(=O)O)NC(=O)[C@H](CO)NC(=O)[C@H](C(C)C)NC(=O)[C@H](CC(C)C)NC(=O)[C@H](CC(N)=O)NC(=O)[C@@H](CC(C)C)NC(=O)[C@H](C)N(C)C(=O)[C@H](C(C)C)NC(=O)[C@H](Cc3ccc(-c4ccccc4)cc3)NC(=O)[C@H](CC(C)C)NC2=O)c1 [Example 1024] ({CH2CO}-Y(Carboxymethyl)[Phe(4-COOH)]D[Phe(3-Me)]L[Bip]V[NMeA][dL]NLVSCG[βAsp][AEEA]D[AEEA][Aun]-OH; thioether N-14)
112 | Cc1cccc(C[C@@H]2NC(=O)[C@H](CC(=O)O)NC(=O)[C@H](Cc3ccc(C(=O)O)cc3)NC(=O)[C@H](Cc3ccc(OCC(=O)O)cc3)NC(=O)CSC[C@@H](C(=O)NCC(=O)N[C@@H](CC(=O)NCCOCCOCC(=O)N[C@@H](CC(=O)NCCCCCCCCCCC(=O)O)C(=O)O)C(=O)O)NC(=O)[C@H](CO)NC(=O)[C@H](C(C)C)NC(=O)[C@H](CC(C)C)NC(=O)[C@H](CC(N)=O)NC(=O)[C@@H](CC(C)C)NC(=O)[C@H](C)N(C)C(=O)[C@H](C(C)C)NC(=O)[C@H](Cc3ccc(-c4ccccc4)cc3)NC(=O)[C@H](CC(C)C)NC2=O)c1 [Example 1025] ({CH2CO}-Y(Carboxymethyl)[Phe(4-COOH)]D[Phe(3-Me)]L[Bip]V[NMeA][dL]NLVSCG[βAsp][AEEA][βAsp][Aun]-OH; thioether N-14)
21.9 | Cc1cccc(C[C@@H]2NC(=O)[C@H](CC(=O)O)NC(=O)[C@H](Cc3ccc(C(=O)O)cc3)NC(=O)[C@H](Cc3ccc(OCC(=O)O)cc3)NC(=O)CSC[C@@H](C(=O)NCCOCCOCC(=O)NCCCCCCCCCCC(=O)O)NC(=O)[C@H](CO)NC(=O)[C@H](C(C)C)NC(=O)[C@H](CC(C)C)NC(=O)[C@H](CC(N)=O)NC(=O)[C@@H](CC(C)C)NC(=O)[C@H](C)N(C)C(=O)[C@H](C(C)C)NC(=O)[C@H](Cc3ccc(-c4ccccc4)cc3)NC(=O)[C@H](CC(C)C)NC2=O)c1 [Example 1027] ({CH2CO}-Y(Carboxymethyl)[Phe(4-COOH)]D[Phe(3-Me)]L[Bip]V[NMeA][dL]NLVSC[AEEA][Aun]-OH; thioether N-14)
14.7 | CC(C)C[C@@H]1NC(=O)[C@H](Cc2c[nH]c3ccccc23)NC(=O)[C@H](CC(=O)O)NC(=O)[C@H](Cc2ccc(C(=O)O)cc2)NC(=O)[C@H](Cc2ccc(OCC(=O)O)cc2)NC(=O)CSC[C@@H](C(=O)NCC(=O)N[C@@H](CN)C(=O)NCC(=O)NCCCCCCCCCCC(=O)O)NC(=O)[C@H](CO)NC(=O)[C@H](C(C)C)NC(=O)[C@H](CC2CCCCC2)NC(=O)[C@H](CCN)NC(=O)[C@@H](CC(C)C)NC(=O)[C@H](C)N(C)C(=O)[C@H](C(C)C)NC(=O)[C@H](Cc2ccc(-c3ccccc3)cc2)NC1=O [Example 1028] ({CH2CO}-Y(Carboxymethyl)[Phe(4-COOH)]DWL[Bip]V[NMeA][dL][Dab][Cha]VSCG[Dap]G[Aun]-OH; thioether N-14)
9 | CC(C)C[C@@H]1NC(=O)[C@H](Cc2c[nH]c3ccccc23)NC(=O)[C@H](CC(=O)O)NC(=O)[C@H](Cc2ccc(C(=O)O)cc2)NC(=O)[C@H](Cc2ccc(OCC(=O)O)cc2)NC(=O)CSC[C@@H](C(=O)NCC(=O)N[C@@H](CCN)C(=O)NCC(=O)NCCCCCCCCCCC(=O)O)NC(=O)[C@H](CO)NC(=O)[C@H](C(C)C)NC(=O)[C@H](CC2CCCCC2)NC(=O)[C@H](CCN)NC(=O)[C@@H](CC(C)C)NC(=O)[C@H](C)N(C)C(=O)[C@H](C(C)C)NC(=O)[C@H](Cc2ccc(-c3ccccc3)cc2)NC1=O [Example 1029] ({CH2CO}-Y(Carboxymethyl)[Phe(4-COOH)]DWL[Bip]V[NMeA][dL][Dab][Cha]VSCG[Dab]G[Aun]-OH; thioether N-14)
10.6 | CC(C)C[C@@H]1NC(=O)[C@H](Cc2c[nH]c3ccccc23)NC(=O)[C@H](CC(=O)O)NC(=O)[C@H](Cc2ccc(C(=O)O)cc2)NC(=O)[C@H](Cc2ccc(OCC(=O)O)cc2)NC(=O)CSC[C@@H](C(=O)NCC(=O)N[C@@H](CCCN)C(=O)NCC(=O)NCCCCCCCCCCC(=O)O)NC(=O)[C@H](CO)NC(=O)[C@H](C(C)C)NC(=O)[C@H](CC2CCCCC2)NC(=O)[C@H](CCN)NC(=O)[C@@H](CC(C)C)NC(=O)[C@H](C)N(C)C(=O)[C@H](C(C)C)NC(=O)[C@H](Cc2ccc(-c3ccccc3)cc2)NC1=O [Example 1030] ({CH2CO}-Y(Carboxymethyl)[Phe(4-COOH)]DWL[Bip]V[NMeA][dL][Dab][Cha]VSCG[Orn]G[Aun]-OH; thioether N-14)
10.7 | CC(C)C[C@@H]1NC(=O)[C@H](Cc2c[nH]c3ccccc23)NC(=O)[C@H](CC(=O)O)NC(=O)[C@H](Cc2ccc(C(=O)O)cc2)NC(=O)[C@H](Cc2ccc(OCC(=O)O)cc2)NC(=O)CSC[C@@H](C(=O)NCC(=O)N[C@@H](CCCCN)C(=O)NCC(=O)NCCCCCCCCCCC(=O)O)NC(=O)[C@H](CO)NC(=O)[C@H](C(C)C)NC(=O)[C@H](CC2CCCCC2)NC(=O)[C@H](CCN)NC(=O)[C@@H](CC(C)C)NC(=O)[C@H](C)N(C)C(=O)[C@H](C(C)C)NC(=O)[C@H](Cc2ccc(-c3ccccc3)cc2)NC1=O [Example 1031] ({CH2CO}-Y(Carboxymethyl)[Phe(4-COOH)]DWL[Bip]V[NMeA][dL][Dab][Cha]VSCGKG[Aun]-OH; thioether N-14)
